Laboratory results published in patent US20240199623A1 (ILDONG PHARMACEUTICAL CO., LTD., priority 2020, published 2024).

molecular target: human wild type-CFTR (Homo sapiens, UniProt P13569); assay: Cell-based YFP assay; set-up: expressed in transfected cells; host or cells: CHO-K1 (Chinese hamster ovary); settings: CHO-K1 cells expressing human wild type-CFTR and YFP-H148Q/I152L; forskolin 20 μM = 100% activity; read-out: Cell-based YFP Assay (EC50) Concentration Range
Procedure, shortened: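 I⁻-driven YFP fluorescence quenching at 37 °C: 2 s baseline, addition of 140 mM iodide solution, then 14 s of readings at 0.4 s intervals. Cells were CHO-K1 expressing human wild-type CFTR plus YFP-H148Q/I152L. EC50 derived from averaged triplicates.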

Chain of human wild type-CFTR (P13569 whole entry): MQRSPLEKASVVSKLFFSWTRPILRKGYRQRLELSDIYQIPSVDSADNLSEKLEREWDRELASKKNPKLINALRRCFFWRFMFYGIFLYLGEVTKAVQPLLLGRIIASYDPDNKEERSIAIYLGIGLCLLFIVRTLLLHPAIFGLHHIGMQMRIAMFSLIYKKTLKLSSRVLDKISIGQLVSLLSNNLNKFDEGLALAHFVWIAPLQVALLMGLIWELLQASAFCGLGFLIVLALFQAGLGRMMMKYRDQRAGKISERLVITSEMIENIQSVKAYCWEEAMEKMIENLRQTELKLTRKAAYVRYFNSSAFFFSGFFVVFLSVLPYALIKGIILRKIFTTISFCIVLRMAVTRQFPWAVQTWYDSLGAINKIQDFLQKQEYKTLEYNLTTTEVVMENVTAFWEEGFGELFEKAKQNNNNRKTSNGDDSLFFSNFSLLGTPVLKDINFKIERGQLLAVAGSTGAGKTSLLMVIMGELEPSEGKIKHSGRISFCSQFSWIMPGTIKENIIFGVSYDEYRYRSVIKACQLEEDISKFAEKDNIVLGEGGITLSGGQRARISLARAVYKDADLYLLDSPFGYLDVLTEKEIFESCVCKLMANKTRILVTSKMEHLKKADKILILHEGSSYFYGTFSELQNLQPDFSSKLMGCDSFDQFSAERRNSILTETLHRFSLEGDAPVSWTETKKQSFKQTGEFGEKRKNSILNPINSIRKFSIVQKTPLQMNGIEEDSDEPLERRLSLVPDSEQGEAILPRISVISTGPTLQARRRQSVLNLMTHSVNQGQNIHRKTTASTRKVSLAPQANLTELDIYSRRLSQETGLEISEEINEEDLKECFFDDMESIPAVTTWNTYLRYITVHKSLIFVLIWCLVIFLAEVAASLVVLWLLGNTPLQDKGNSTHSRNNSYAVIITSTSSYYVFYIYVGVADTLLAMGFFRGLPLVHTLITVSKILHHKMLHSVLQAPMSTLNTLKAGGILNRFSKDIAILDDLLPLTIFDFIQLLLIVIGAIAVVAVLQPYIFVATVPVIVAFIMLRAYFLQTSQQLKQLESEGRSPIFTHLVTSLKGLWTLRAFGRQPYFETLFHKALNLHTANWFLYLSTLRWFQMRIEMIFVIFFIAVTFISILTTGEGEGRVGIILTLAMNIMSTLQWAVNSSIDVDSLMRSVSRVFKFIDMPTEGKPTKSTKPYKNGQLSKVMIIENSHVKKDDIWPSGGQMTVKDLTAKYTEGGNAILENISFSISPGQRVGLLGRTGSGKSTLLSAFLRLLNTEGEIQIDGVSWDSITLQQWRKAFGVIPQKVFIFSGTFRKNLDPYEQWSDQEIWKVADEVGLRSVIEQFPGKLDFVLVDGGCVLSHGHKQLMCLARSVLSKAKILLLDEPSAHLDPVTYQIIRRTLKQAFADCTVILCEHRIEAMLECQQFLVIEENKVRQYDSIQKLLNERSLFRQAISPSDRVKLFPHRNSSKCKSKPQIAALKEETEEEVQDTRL

Compound	EC50 [nM]
COc1ccc(-c2ccnc3cc(C(=O)Nc4ccc(OC(=O)CNC(=O)OC(C)(C)C)cc4)nn23)cc1OC [Compound 227, 4-(7-(3,4-dimethoxyphenyl)pyrazolo[1,5-a]pyrimidine-2-carboxamido) phenyl(tert-butoxycarbonyl)glycinate]	< 200
COc1ccc(-c2ccnc3cc(C(=O)Nc4ccc(OC(=O)[C@@H](N)C(C)C)cc4)nn23)cc1OC [Compound 172, 4-(7-(3,4-dimethoxyphenyl)pyrazolo[1,5-a]pyrimidine-2-carboxamido) phenyl L-valinate]	< 200
COC(=O)c1ccc(NC(=O)c2cc3nccc(-c4ccc(OC)c(OC)c4)n3n2)cn1 [Compound 190, methyl 5-(7-(3,4-dimethoxyphenyl)pyrazolo [1,5-a]pyrimidine-2-carboxamido)picolinate]	200 to 2000
COc1ccc(-c2ccnc3cc(C(=O)Nc4ccc(C(=O)N[C@H](C)C(=O)O)cc4)nn23)cc1OC [Compound 89, (4-(7-(3,4-dimethoxyphenyl)pyrazolo[1,5-a]pyrimidine-2-carboxamido)benzoyl)-D-alanine]	≥ 2000
COc1ccc(-c2ccnc3cc(C(=O)N4CCN(C(=O)c5ccsc5)[C@@H](C)C4)nn23)cc1OC [Compound 379, (S)-(7-(3,4-dimethoxyphenyl)pyrazolo[1,5-a]pyrimidin-2-yl)(3-methyl-4-(thiophene-3-carbonyl)piperazin-1-yl)methanone]	< 200
COc1ccc(-c2ccnc3cc(C(=O)N4CCN(C(=O)c5ncccn5)[C@@H](C)C4)nn23)cc1OC [Compound 383, (S)-(7-(3,4-dimethoxy-phenyl)pyrazolo[1,5-a]pyrimidin-2-yl)(3-methyl-4-(pyrimidine-2-carbonyl)piperazin-1-yl)methanone]	200 to 2000
COc1ccc(-c2ccnc3cc(C(=O)N4CCN(C(=O)c5cccc(F)c5)[C@@H](C)C4)nn23)cc1OC [Compound 263, (S)-(7-(3,4-dimethoxyphenyl)pyrazolo[1,5-a]pyrimidin-2-yl)(4-(3-fluorobenzoyl)-3-methylpiperazin-1-yl) methanone]	200 to 2000
COc1ccc(-c2ccnc3cc(C(=O)Nc4ccc(N5CCNCC5)cn4)nn23)cc1OC [Compound 286, 7-(3,4-dimethoxyphenyl)-N-(5-(piperazin-1-yl)pyridin-2-yl)pyrazolo [1,5-a]pyrimidine-2-carboxamide]	< 200
COc1ccc(-c2ccnc3cc(C(=O)N4CCc5ccc(C(=O)N6CCOCC6)cc5C4)nn23)cc1OC [Compound 238, (7-(3,4-dimethoxyphenyl)pyrazolo[1,5-a]pyrimidin-2-yl)(7-(morpholine-4-carbonyl)-3,4-dihydroisoquinolin-2(1H)-yl)methanone]	≥ 2000
COc1ccc(-c2ccnc3cc(C(=O)N4CC(NC(=O)OC(C)(C)C)C4)nn23)cc1OC [Compound 116, tert-butyl (1-(7-(3,4-dimethoxyphenyl)pyrazolo [1,5-a]pyrimidine-2-carbonyl)azetidin-3-yl) carbamate]	200 to 2000
COc1ccc(-c2ccnc3cc(C(=O)N4CCN(Cc5ccccc5)C(C)(C)C4)nn23)cc1OC [Compound 207, (4-benzyl-3,3-dimethylpiperazin-1-yl)(7-(3,4-dimethoxyphenyl)pyrazolo [1,5-a]pyrimidin-2-yl)methanone]	200 to 2000
COc1ccc(-c2ccnc3cc(C(=O)NC45CC(C(=O)N6CCNCC6)(C4)C5)nn23)cc1OC [Compound 98, 7-(3,4-dimethoxyphenyl)-N-(3-(piperazine-1-carbonyl)bicyclo [1.1.1]pentan-1-yl)pyrazolo[1,5-a] pyrimidine-2-carboxamide]	≥ 2000
COc1ccc(-c2ccnc3cc(C(=O)NC(=Cc4ccccc4)C(=O)N4CCN(C)CC4)nn23)cc1OC [Compound 134, 7-(3,4-dimethoxyphenyl)-N-(3-(4-methylpiperazin-1-yl)-3-oxo-1-phenylprop-1-en-2-yl)pyrazolo[1,5-a] pyrimidine-2-carboxamide]	< 200
COc1ccc(-c2ccnc3cc(C(=O)N4CC(C)N(C(=O)c5ccccc5)C(C)C4)nn23)cc1OC (stereo not shown) [Compound 348, (4-benzoyl-3,5-dimethylpiperazin-1-yl) (7-(3,4-dimethoxyphenyl)pyrazolo [1,5-a]pyrimidine-2-yl)methanone]	200 to 2000
CCCCOc1ccc(NC(=O)c2cc3nccc(-c4ccc(OC)c(OC)c4)n3n2)cc1 [Compound 229, N-(4-butoxyphenyl)-7-(3,4-dimethoxyphenyl)pyrazolo [1,5-a]pyrimidine-2-carboxamide]	< 200
COc1ccc(-c2ccnc3cc(C(=O)N4CCN(C(=O)c5ccc(C)cc5)[C@@H](C)C4)nn23)cc1OC [Compound 351, (S)-(7-(3,4-dimethoxyphenyl)pyrazolo[1,5-a]pyrimidin-2-yl)(3-methyl-4-(4-methylbenzoyl)piperazin-1-yl)methanone]	< 200
COc1ccc(-c2ccnc3cc(C(=O)N[C@H]4CC[C@@H](C(=O)N5CCN(C)CC5)CC4)nn23)cc1OC [Compound 240, 7-(3,4-dimethoxyphenyl)-N-((1S,4S)-4-(4-methylpiperazine-1-carbonyl)cyclohexyl) pyrazolo[1,5-a]pyrimidine-2-carboxamide]	≥ 2000

Compound	EC50 [nM]
CCOC(=O)C1(NC(=O)c2cc3nccc(-c4ccc(OC)c(OC)c4)n3n2)CC1 [Compound 26, ethyl 1-(7-(3,4-dimethoxyphenyl)pyrazolo [1,5-a]pyrimidine-2-carboxamido) cyclopropane-1-carboxylate]	200 to 2000
COc1ccc(-c2ccnc3cc(C(=O)N4CC[C@@H](O)C4)nn23)cc1OC [Compound 150, (R)-(7-(3,4-dimethoxyphenyl)pyrazolo[1,5-a]pyrimidin-2-yl)(3-hydroxypyrrolidin-1-yl)methanone]	≥ 2000
CCOC(=O)[C@H]1CC[C@H](NC(=O)c2cc3nccc(-c4ccc(OC)c(OC)c4)n3n2)CC1 [Compound 330, ethyl (1R,4R)-4-(7-(3,4-dimethoxyphenyl)pyrazolo [1,5-a]pyrimidine-2-carboxamido)cyclohexane-1-carboxylate]	200 to 2000
CCOc1ccc(NC(=O)c2cc3nccc(-c4ccc(Cl)cc4F)n3n2)cc1 [Compound 304, 7-(4-chloro-2-fluorophenyl)-N-(4-ethoxyphenyl)pyrazolo [1,5-a]pyrimidine-2-carboxamide]	≥ 2000
COc1ccc(-c2ccnc3cc(C(=O)Nc4ccc(CO)cc4)nn23)cc1OC [Compound 292, 7-(3,4-dimethoxyphenyl)-N-(4-(hydroxymethyl)phenyl) pyrazolo[1,5-a]pyrimidine-2-carboxamide]	< 200
COc1ccc(-c2ccnc3cc(C(=O)N4CCN(C(=O)c5ccco5)[C@@H](C)C4)nn23)cc1OC [Compound 353, (S)-(7-(3,4-dimethoxyphenyl)pyrazolo[1,5-a]pyrimidin-2-yl)(4-(furan-2-carbonyl)-3-methylpiperazin-1-yl)methanone]	< 200
COc1ccc(-c2ccnc3cc(C(=O)NCC(=O)O)nn23)cc1OC [Compound 22, (7-(3,4-dimethoxyphenyl)pyrazolo[1,5-a]pyrimidine-2-carbonyl) glycine]	≥ 2000
COc1ccc(-c2ccnc3cc(C(=O)Nc4ccc(N5CCN(C)CC5)cc4)nn23)cc1OC [Compound 193, 7-(3,4-dimethoxyphenyl)-N-(4-(4-methylpiperazin-1-yl)phenyl)pyrazolo[1,5-a]pyrimidine-2-carboxamide]	< 200
CCOc1ccc(NC(=O)c2cc3nccc(-c4cccc(C)c4)n3n2)cc1 [Compound 301, N-(4-ethoxyphenyl)-7-(m-tolyl)pyrazolo[1,5-a] pyrimidine-2-carboxamide]	≥ 2000
COc1ccc(-c2ccnc3cc(C(=O)Nc4ccc(C(=O)N[C@@H](CCSC)C(=O)O)cc4)nn23)cc1OC [Compound 87, (4-(7-(3,4-dimethoxyphenyl)pyrazolo[1,5-a]pyrimidine-2-carboxamido)benzoyl)-L-methionine]	≥ 2000
COc1ccc(-c2ccnc3cc(C(=O)Nc4ccc(C(=O)N5CCOCC5)nc4)nn23)cc1OC [Compound 264, 7-(3,4-dimethoxyphenyl)-N-(6-(morpholine-4-carbonyl)pyridin-3-yl) pyrazolo[1,5-a]pyrimidine-2-carboxamide]	≥ 2000
COc1ccc(-c2ccnc3cc(C(=O)N[C@H]4CC[C@H](C(N)=O)CC4)nn23)cc1OC [Compound 74, N-((1R,4R)-4-carbamoylcyclohexyl)-7-(3,4-dimethoxyphenyl)pyrazolo [1,5-a]pyrimidine-2-carboxamide]	≥ 2000
COc1ccc(-c2ccnc3cc(C(=O)Nc4ccc(OC(C)C)cc4)nn23)cc1OC [Compound 290, 7-(3,4-dimethoxyphenyl)-N-(4-isopropoxyphenyl)pyrazolo [1,5-a]pyrimidine-2-carboxamide]	200 to 2000
COc1ccc(-c2ccnc3cc(C(=O)N4CCOCC4)nn23)cc1OC [Compound 61, (7-(3,4-dimethoxyphenyl)pyrazolo[1,5-a]pyrimidine-2-yl) (morpholino)methanone]	≥ 2000
COc1ccc(-c2ccnc3cc(C(=O)N4CCN(C(=O)OC(C)(C)C)C(C)(C)C4)nn23)cc1OC [Compound 113, tert-butyl 4-(7-(3,4-dimethoxyphenyl)pyrazolo [1,5-a]pyrimidine-2-carbonyl)-2,2-dimethylpiperazine-1-carboxylate]	< 200
COc1ccc(-c2ccnc3cc(C(=O)Nc4ccc5c(ccn5C)c4)nn23)cc1OC [Compound 309, 7-(3,4-dimethoxyphenyl)-N-(1-methyl-1H-indol-5-yl)pyrazolo [1,5-a]pyrimidine-2-carboxamide]	< 200
COc1ccc(-c2ccnc3cc(C(=O)Nc4ccc(N5CCOCC5)cc4F)nn23)cc1OC [Compound 311, 7-(3,4-dimethoxyphenyl)-N-(2-fluoro-4-morpholinophenyl) pyrazolo[1,5-a]pyrimidine-2-carboxamide]	< 200
